Experimental data: patent US5416118A, “Bicyclic amides as inhibitors of acyl-coenzyme A: cholesterol acyl transferase” (Schering Corporation, priority 1993, dated 1995)

How the values were obtained:
ACAT = ACAT Assay (in vitro); type: biochemical; settings: dose = 10 μM; rat liver microsomes
Method: This assay measures the activity of ACAT by measuring the ACAT-mediated transfer of tritiated oleic acid from acyl-CoA to cholesterol to give labelled cholesterol oleate. Rat liver microsomes are used as the source of ACAT. Assays are performed in round bottom microtiterplates using a total incubation volume of 50 μL. Each incubation well receives 10 μL assay buffer (0.5M KHPO4, 10 μM dithiothreitol, pH 7.4), 7.5 μL of 40 mg/mL BSA (Bovine Serum Albumin) and 12.5 μg of microsomal protein. The test compound (in sufficient amount to bring the final concentration to from 0.1 to 25 μM), reference compound, or vehicle control is added and the final volume brought to 47 μL. The microtiterplate is then floated on the surface of a 37° C. water bath for fifteen minutes. Incubations are started by the addition of 3 μL ^3 H-acyl CoA (1 μCi/well, final concentration of 10 μM acyl CoA). The plate is then returned to the water bath for 15 minutes. The incubations are then terminated by application of 15 μL from each incubation to individual lanes on a thin layer plate (Silica Gel GF 20×20 cm). Standards are applied to several lanes so that the cholesterol ester band can be identified. After drying, the plates are eluted with 90:10:1 petroleum ether:ether:HOAc. The standards are visualized via iodine vapor, and the regions corresponding to cholesterol ester are scraped into 7 mL scintillation vials. 4 mL of scintillant are added to each vial, and the radioactivity quantified. Background count is determined by the boiled controls. Full activity is determined by activity in the presence of vehicle. The percent inhibition is calculated by subtracting the background from both control and test samples, and the test value is calculated as a percentage of the control. For IC50 determinations, the inhibition is plotted against drug doses on a log scale and the concentration at which 50% inhibition is obtained is determined.
(§1) Using the assay methods described above, the compounds of Examples 1-9 were tested for in vitro ACAT inhibitory activity and for the ability to lower the level of cholesteryl esters in vivo.

cholesteryl esters = assay: In Vivo Assay of Hypolipidemic Agents Using the Hyperlipidemic Hamster; settings: Mesocricetus auratus, po, 168 h, oral gavage once daily, 7 days, versus control, read-out: % Reduction in cholesteryl esters; for change in vivo at 50 mg/kg: 50 mpk; for change in vivo at 25 mg/kg: 25 mpk
Method: In Vivo Assay of Hypolipidemic Agents Using the Hyperlipidemic Hamster
Hamsters are separated into groups of six and given a control cholesterol diet (Pudna Chow #5001 containing 0.5% cholesterol) for seven days. Diet consumption is monitored to determine dietary cholesterol exposure in the face of test compounds. The animals are dosed with the test compound once daily beginning with the initiation of diet. Dosing is by oral gavage of 0.2 mL of corn oil alone (control group) or solution (or suspension) of test compound in corn oil. All animals moribund or in poor physical condition are euthanized. After seven days, the animals are anesthetized by […] of ketamine and sacrificed by decapitation. Blood is collected into vacutainer tubes containing EDTA for plasma lipid analysis and the liver excised for tissue lipid analysis. Data is reported as percent reduction of lipid versus control.
as §1

Structure (SMILES)	ACAT % Inhibition (ACAT)	change in vivo at 100 mg/kg (cholesteryl esters; 100 mpk)	change in vivo at 50 mg/kg (cholesteryl esters)	change in vivo at 10 mg/kg (cholesteryl esters; 10 mpk)	change in vivo at 25 mg/kg (cholesteryl esters)
CCCCCCCC/C=C\CCCCCCCC(=O)N[C@H]1c2ccccc2OC[C@H]1c1ccccc1 (relative stereo) [Example 2N]	85%	0%	–	–	–
COc1ccc2c(c1)C[C@@H](c1ccccc1)[C@H]2NC(=O)C(c1ccccc1)c1ccccc1 (relative stereo) [Example 2R]	75%	–	0%	–	–
O=C(N[C@H]1c2ccccc2C[C@H]1c1ccccc1)C(c1ccccc1)c1ccccc1 (relative stereo) [Example 2S]	83%	–	16%	–	–
O=C(N[C@H]1c2ccccc2C[C@H]1c1ccc(O)cc1)C(c1ccccc1)c1ccccc1 (relative stereo) [Example 3, cis-N-[2-(4'-hydroxyphenyl)indanyl]-αphenylbenzeneacetamide]	99%	–	-89%	-71%	-87.5%
O=C(N[C@@H]1c2ccccc2C[C@@H]1c1cccc(O)c1)C(c1ccccc1)c1ccccc1 (relative stereo) [Example 3B]	97%	–	0%	–	–
O=C(N[C@@H]1c2ccccc2CC[C@@H]1c1cccc(O)c1)C(c1ccccc1)c1ccccc1 (relative stereo) [Example 3C]	77%	–	0%	–	–
O=C(N[C@@H]1c2ccccc2CC[C@H]1c1cccc(O)c1)C(c1ccccc1)c1ccccc1 (relative stereo) [Example 3D]	98%	–	0%	–	–
O=C(N[C@@H]1c2ccccc2C[C@H]1c1ccc(O)cc1)C(c1ccccc1)c1ccccc1 (relative stereo) [Example 3E]	99%	–	-52%	–	–
O=C(N[C@@H]1c2ccccc2CC[C@@H]1c1ccc(O)cc1)C(c1ccccc1)c1ccccc1 (relative stereo) [Example 3F]	91%	–	-16%	–	–
O=C(N[C@@H]1c2ccccc2CC[C@H]1c1ccc(O)cc1)C(c1ccccc1)c1ccccc1 (relative stereo) [Example 3G]	93%	–	-57%	–	-43%
CCCCCCCCCC(C)(C)C(=O)N[C@@H]1c2ccccc2CC[C@H]1c1ccc(O)cc1 (relative stereo) [Example 3H]	86%	–	0%	–	–
O=C(N[C@@H]1c2ccccc2CC[C@H]1c1ccc(O)cc1)N(c1ccccc1)c1ccccc1 (relative stereo) [Example 3I]	99%	–	-16%	–	–
O=C(N[C@@H]1c2ccc(O)cc2C[C@@H]1c1ccccc1)C(c1ccccc1)c1ccccc1 (relative stereo) [Example 3K]	54%	–	0%	–	–
O=C(N[C@@H]1c2ccc(O)cc2CC[C@@H]1c1ccccc1)C(c1ccccc1)c1ccccc1 (relative stereo) [Example 3M]	87%	–	-45%	–	–
O=C(N[C@@H]1c2ccc(O)cc2CC[C@H]1c1ccccc1)C(c1ccccc1)c1ccccc1 (relative stereo) [Example 3N]	92%	–	0%	–	–
O=C(N[C@@H]1c2cc(O)ccc2CC[C@@H]1c1ccccc1)C(c1ccccc1)c1ccccc1 (relative stereo) [Example 3P]	75%	–	0%	–	–
O=C(N[C@@H]1c2cc(O)ccc2CC[C@H]1c1ccccc1)C(c1ccccc1)c1ccccc1 (relative stereo) [Example 3Q]	94%	–	-78%	–	–
O=C(N[C@@H]1c2cc(O)ccc2C[C@@H]1c1ccccc1)C(c1ccccc1)c1ccccc1 (relative stereo) [Example 3W]	84%	–	14%	–	–
CCCCCCCC/C=C\CCCCCCCC(=O)N[C@@H]1c2ccccc2CC[C@H]1c1ccc(O)cc1 (relative stereo) [Example 4, trans-N-[2-(4'-hydroxyphenyl)-1,2,3,4-tetrahydronaphth-1-yl]oleamide]	94%	–	0%	–	–
